According to ChEMBL document CHEMBL3885861, “Open TG-GATES”:

Species on record: Rattus norvegicus
Assay: Open TG-GATES - Regimen: Daily Repeat
Format: toxicity, organism-based, Sprague-Dawley
Set-up: regimen Daily Repeat, gender Male, age 6 weeks
Conditions: in vivo, iv, route intravenous injection; for TP / gamma-GTP / ALP / AST / CRE / DBIL / GLC / IP / K / LDH / PL / RALB / TBIL / TC / TG / ALT / BUN: tissue Plasma; for KIDNEY_L / KIDNEY_R / KIDNEY_TOTAL: tissue Kidney; for LIVER: tissue Liver
[1] = 30 mg/kg, […], dose level Middle, time 28 day
[2] = 100 mg/kg, 72 h, dose level High, time 3 day
[3] = 100 mg/kg, 72 h, tissue Blood, dose level High, time 3 day
[4] = 100 mg/kg, […], dose level High, time 7 day
[5] = 100 mg/kg, […], dose level High, time 14 day
[6] = 100 mg/kg, […], dose level High, time 28 day
[7] = 100 mg/kg, […], tissue Blood, dose level High, time 7 day
[8] = 100 mg/kg, […], tissue Blood, dose level High, time 14 day
[9] = 100 mg/kg, […], tissue Blood, dose level High, time 28 day

GENTAMICIN gave a TP [1] of 5.8 g/dL, a gamma-GTP [1] of 2.2 IU/L and a TERMINAL_BW [2] of 229.2 g. It also gave an APTT [3] of 22 s, a Bas [3] of 0% and an Eos [3] of 1%. The Fbg [3] was 294.4 mg/dL, the Ht [3] was 38.2% and the Lym [3] was 80.8%. The MCH [3] was 21 pg, the MCHC [3] was 34.3% and the MCV [3] was 61.1 fL. The Mono [3] was 3.8%, the Neu [3] was 13% and the PT [3] was 16.5 s. The Plat [3] was 115 x10_4/uL, the RBC [3] was 625.8 x10_4/ul and the Ret [3] was 4.8%. It also gave a WBC [3] of 83.9 x10_2/uL, a KIDNEY_L [2] of 1 g and a KIDNEY_R [2] of 1 g. The KIDNEY_TOTAL [2] was 2 g, the LIVER [2] was 10 g and the ALP [2] was 1437 IU/L. The AST [2] was 67.4 IU/L, the CRE [2] was 0.2 mg/dL and the DBIL [2] was 0 mg/dL. The GLC [2] was 170 mg/dL, the IP [2] was 6.8 mg/dL and the K [2] was 4.7 meq/L. It also gave an LDH [2] of 137.2 IU/L, a PL [2] of 131.4 mg/dL and an RALB [2] of 3 g/dL. The TBIL [2] was 0.014 mg/dL, the TC [2] was 64.8 mg/dL and the TG [2] was 100 mg/dL. The TP [2] was 5.5 g/dL, the gamma-GTP [2] was 1.4 IU/L and the TERMINAL_BW [4] was 262.4 g. The TERMINAL_BW [5] was 275.2 g, the TERMINAL_BW [6] was 315.6 g and the APTT [7] was 24.3 s. The Bas [7] was 0%, the Eos [7] was 1.2% and the Fbg [7] was 314.2 mg/dL. It also gave a Lym [7] of 77.6%, an MCHC [7] of 34.5% and an MCV [7] of 60.6 fL. It also gave a Mono [7] of 4.2%, a Plat [7] of 106.7 x10_4/uL and an RBC [7] of 646.4 x10_4/ul. The Ret [7] was 4.3%, the WBC [7] was 117.3 x10_2/uL and the APTT [8] was 23.3 s. The Bas [8] was 0%, the Eos [8] was 1% and the Fbg [8] was 320.8 mg/dL. For the same sequence, the Lym [8] was 83%, the MCH [8] was 21.1 pg and the MCHC [8] was 36.2%. It also gave an MCV [8] of 58.1 fL, a Mono [8] of 3% and a PT [8] of 16.4 s. It also gave a Plat [8] of 114.3 x10_4/uL, an RBC [8] of 701.8 x10_4/ul and a Ret [8] of 1.8%. For the same sequence, the WBC [8] was 106.6 x10_2/uL, the APTT [9] was 23.9 s and the Bas [9] was 0%. The Eos [9] was 1.2%, the Fbg [9] was 282.2 mg/dL and the Hb [9] was 14.7 g/dL. It also gave a Ht [9] of 40.7%, a Lym [9] of 83.5% and an MCH [9] of 19 pg. For the same sequence, the MCHC [9] was 36.1%, the MCV [9] was 52.6 fL and the Mono [9] was 2.2%. For the same sequence, the Neu [9] was 11.5%, the PT [9] was 16.5 s and the Plat [9] was 118.3 x10_4/uL. For the same sequence, the RBC [9] was 773 x10_4/ul, the Ret [9] was 1.3% and the WBC [9] was 112.9 x10_2/uL. It also gave a KIDNEY_L [4] of 1.2 g, a KIDNEY_R [4] of 1.2 g and a KIDNEY_TOTAL [4] of 2.5 g. The KIDNEY_L [5] was 1.5 g, the KIDNEY_R [5] was 1.5 g and the KIDNEY_TOTAL [5] was 3 g. It also gave a KIDNEY_L [6] of 1.6 g, a KIDNEY_R [6] of 1.7 g and a KIDNEY_TOTAL [6] of 3.3 g. The LIVER [4] was 10.9 g, the LIVER [5] was 10.2 g and the ALP [4] was 1249 IU/L. For the same sequence, the ALT [4] was 39.8 IU/L, the AST [4] was 73 IU/L and the CRE [4] was 0.2 mg/dL. For the same sequence, the DBIL [4] was 0 mg/dL, the GLC [4] was 182.6 mg/dL and the IP [4] was 6 mg/dL. It also gave a K [4] of 4.6 meq/L, an LDH [4] of 158.8 IU/L and a PL [4] of 139.8 mg/dL. It also gave an RALB [4] of 3 g/dL, a TBIL [4] of 0.004 mg/dL and a TC [4] of 71 mg/dL. It also gave a TG [4] of 91.4 mg/dL, a TP [4] of 5.6 g/dL and a gamma-GTP [4] of 2 IU/L. For the same sequence, the ALP [5] was 1114.5 IU/L, the ALT [5] was 33.5 IU/L and the AST [5] was 71.8 IU/L. The BUN [5] was 20 mg/dL, the CRE [5] was 0.3 mg/dL and the DBIL [5] was 0 mg/dL. It also gave an IP [5] of 6 mg/dL, a K [5] of 4.2 meq/L and a PL [5] of 148.8 mg/dL. The RALB [5] was 3.1 g/dL, the TBIL [5] was 0.015 mg/dL and the TC [5] was 81.8 mg/dL. The TG [5] was 98.2 mg/dL, the TP [5] was 5.7 g/dL and the gamma-GTP [5] was 2.5 IU/L. It also gave an ALP [6] of 662.5 IU/L, an AST [6] of 67 IU/L and a BUN [6] of 18 mg/dL. It also gave a CRE [6] of 0.3 mg/dL, a DBIL [6] of 0 mg/dL and an IP [6] of 5.8 mg/dL. The K [6] was 3.6 meq/L, the LDH [6] was 109.2 IU/L and the PL [6] was 112 mg/dL. For the same sequence, the RALB [6] was 3.1 g/dL, the TBIL [6] was 0.03 mg/dL and the TC [6] was 67 mg/dL. For the same sequence, the TG [6] was 40 mg/dL, the TP [6] was 5.9 g/dL and the gamma-GTP [6] was 2.5 IU/L.
